Measurements as given in patent EP1229025A1, “NOVEL QUINAZOLINE DERIVATIVES” (Japan Energy Corporation, priority 1999, dated 2001).

Tested on: TNF-α production
Experiment: TNF-α production inhibiting test using human PBMC (LPS stimulus, ELISA)
Format: cell-based
Conditions: LPS 10 ng/ml, 16 hours, ELISA of culture supernatants
Protocol: Example 145: TNF-α production inhibiting test using human PBMC (peripheral blood mononuclear cells)
Preparation of human PBMC
The blood of a healthy person was taken with a vacuum blood-collecting tube (Nipro neotube) and diluted up to two-fold with physiological saline (Otsuka Pharmaceuticals). To the diluted blood was added 6% dextran T-500 (prepared after dissolution in physiological saline (Otsuka Pharmaceuticals) and sterilization with an autoclave) so as to make a final concentration of 1%. The solution was subjected to tumble mixing and allowed to stand at room temperature for 30 minutes to precipitate the erythrocytes. The supernatant was collected and subjected to centrifugation at 20 °C and at 1,500 rpm for 10 minutes. The cells were suspended in 3 ml of RPMI1640 culture medium (Asahi Technogllas) and overlaid on the solution surface of 3 ml Lymphoprep (NYCOMED). Further, with 1.5 ml of RPMI1640 culture medium being added to the tube which had contained the cell suspension liquid, the cells attached to the tube, which had remained uncollected, were suspended for collection and overlaid on the Lymphoprep previously mentioned. This operation was repeated again. After centrifugation at 20 °C and at 2,000 rpm for 30 minutes, there was collected a fraction of peripheral blood mononuclear cells present in the boundary surface between the Lymphoprep and the RPMI1640 culture medium. The cells were washed twice with 10 ml RPMI1640 culture medium to remove the Lymphoprep and then suspended in a RPMI1640 culture medium added with 10% bovine fetal serum (IRVINE SCIENTIFIC), 100 U/ml penicillin and 100 µg/ml streptomycin (hereinafter referred to as cRPMI1640 culture medium). The number of the cells was measured by Tuerk dying, and the cells, after adjustment to 3 × 10^6 cells/ml, were planted in 100 µl/well on a 96-well plate (FALCON). The cells were cultured at 37 °C under 5%CO2 atmosphere for about 5 hours.
Induction of TNF-α production by LPS stimulus
LPS (E.coli 0111:B4, DIFCO), which had been prepared to 10 mg/ml with water and kept at -20, was diluted to 100 µg/ml with cRPMI1640 culture medium and subjected to sterile filtration. The 100 µg/ml LPS was diluted with cRPMI1640 culture medium to prepare 20 ng/ml LPS. A compound to be tested which was dissolved in DMSO at 1,000-fold concentration was diluted to 500-fold with cRPMI1640 culture medium containing 20 ng/ml LPS and added in 100 µl/well to the cells which had been planted on the previously mentioned 96-well plate (final concentration of LPS: 10 ng/ml). For use as the control group, the solutions were made by diluting DMSO of the same volume as in the test compounds with cRPMI1640 culture medium containing 20 ng/ml LPS, and they were added to the cells. These cells were cultured at 37 °C under 5%CO2 atmosphere for 16 hours.
Determination of TNF-α activity (ELISA method)
To the 96-well plate the mouse anti-human TNF-α antibody (prepared to 2 µg/ml with Coating buffer*^1) was added so as to make 100 µl/well and allowed to stand at 4 °C overnight. After 5-times washing with Wash buffer*^2 (300µl/well), the Blocking buffer*^3 was added to the solutions, which were allowed to stand 37 °C for 2 hours. The culture supernatants were diluted up to 5-fold in the plate (supernatant 20 µl being added to 80 µl of cRPMI1640 culture medium). Simultaneously, for using for a calibration curve, a series of dilution of recombinant human TNF-α was prepared arid allowed to stand 37 °C for 1 hour. After 5-times washing with Wash buffer (300 µl /well), biotinylated rabbit anti-human TNF-α antibody (prepared to 0.25 µg/ml with Antibody diluent*^4) was added so as to make 100 µl /well and allowed to stand at 37 °C for 1 hour. After 5-times washing with Wash buffer (300 µl /well), Streptavidin-Horseradish peroxidase(prepared to 1:4000 with Antibody diluent) was added to make 100 µl /well and allowed to stand at 37 °C for 15 minutes. […]

| IC50 | SMILES |
| --- | --- |
| 80 nM | O=[N+]([O-])c1cc2c(NCc3ccc4c(c3)OCO4)ncnc2cc1N1CCNCC1 [Example 31, 4-[3,4-(methylenedioxy)benzylamino]-6-nitro-7-(piperazin-1-yl)quinazoline] |
| 300 nM | O=[N+]([O-])c1cc2c(NCc3ccccc3F)ncnc2cc1N1CCNCC1 [Example 61, 4-(2-fluorobenzylamino)-6-nitro-7-(piperazin-1-yl)quinazoline] |
| 7200 nM | CC(CNc1ncnc2cc(N3CCNCC3)c([N+](=O)[O-])cc12)c1ccccc1 (stereo not drawn) [Example 82, 4-(2-methyl-2-phenylethylamino)-6-nitro-7-(piperazin-1-yl)quinazoline] |
| 6400 nM | O=[N+]([O-])c1cc2c(NC3CCN(Cc4ccccc4)CC3)ncnc2cc1N1CCNCC1 [Example 86, 4-[(1-benzyl-4-piperidyl)amino]-6-nitro-7-(piperazin-1-yl)quinazoline] |
| 2100 nM | O=[N+]([O-])c1cc2c(N3CCN(c4ccccc4)CC3)ncnc2cc1N1CCNCC1 [Example 98, 6-nitro-4-(4-phenylpiperazinyl)-7-piperazinylquinazoline] |
| 900 nM | COc1ccc(N2CCN(c3ncnc4cc(N5CCNCC5)c([N+](=O)[O-])cc34)CC2)cc1 [Example 99, 4-[(4-methoxyphenyl)piperazinyl]-6-nitro-7-piperazinylquinazoline] |
| 1400 nM | O=[N+]([O-])c1cc2c(N3CCN(c4ccc(Cl)cc4)CC3)ncnc2cc1N1CCNCC1 [Example 101, 4-[(4-chlorophenyl)piperazinyl]-6-nitro-7-piperazinylquinazoline] |
| 600 nM | Fc1cc2c(NCc3ccc4c(c3)OCO4)ncnc2cc1N1CCNCC1 [Example 114, 6-fluoro-4-[3,4-(methylenedioxy)benzylamino]-7-(piperazin-1-yl)quinazoline] |
| 2200 nM | Fc1cc2c(NCCc3ccc4c(c3)OCO4)ncnc2cc1N1CCNCC1 [Example 118, 6-fluoro-4-[2-[(3,4-methylenedioxy)phenyl]ethylamino]-7-(piperazin-1-yl)quinazoline] |
| 2300 nM | Fc1ccc(CCCNc2ncnc3cc(N4CCNCC4)c(F)cc23)cc1 [Example 119, 6-fluoro-4-[3-[(4-fluoro)phenyl]propylamino]-7-(piperazin-1-yl)quinazoline] |
| 2000 nM | Fc1cc2c(NCCCc3ccc4c(c3)OCO4)ncnc2cc1N1CCNCC1 [Example 120, 6-fluoro-4-[3-[(3,4-methylenedioxy)phenyl]propylamino]-7-(piperazin-1-yl)quinazoline] |
| 2500 nM | Fc1cc2c(NCc3ccc4c(c3)OCCO4)ncnc2cc1N1CCNCC1 [Example 121, 4-[(3,4-ethylenedioxy)benzylamino]-6-fluoro-7-(piperazin-1-yl)quinazoline] |
| 600 nM | CN(Cc1ccc2c(c1)OCO2)c1ncnc2cc(N3CCNCC3)c(F)cc12 [Example 122, 6-fluoro-4-[[N-methyl-N'-(3,4-methylenedioxybenzyl)]amino]-7-(piperazin-1-yl)quinazoline] |
| 600 nM | O=[N+]([O-])c1cc2c(Nc3ccc(F)cc3)ncnc2cc1N1CCNCC1 [Example 123, 4-[(4-fluoro)anilino]-6-nitro-7-(piperazin-1-yl)quinazoline] |
| 1700 nM | O=[N+]([O-])c1cc2c(Nc3ccc4c(c3)OCO4)ncnc2cc1N1CCNCC1 [Example 124, 4-[(3,4-methylenedioxy)anilino]-6-nitro-7-(piperazin-1-yl)quinazoline] |
| 3300 nM | O=[N+]([O-])c1cc2c(NCCc3ccc4c(c3)OCO4)ncnc2cc1N1CCNCC1 [Example 125] |
| 700 nM | O=[N+]([O-])c1cc2c(NCCCc3ccc(F)cc3)ncnc2cc1N1CCNCC1 [Example 126, 4-[3-[(4-fluoro)phenyl]propylamino]-6-nitro-7-(piperazin-1-yl)quinazoline] |
| 500 nM | O=[N+]([O-])c1cc2c(NCCCc3ccc4c(c3)OCO4)ncnc2cc1N1CCNCC1 [Example 127, 4-[3-[(3,4-methylenedioxy)phenyl]propylamino]-6-nitro-7-(piperazin-1-yl)quinazoline] |
| 700 nM | O=[N+]([O-])c1cc2c(NCc3ccc(F)c(F)c3)ncnc2cc1N1CCNCC1 [Example 128, 4-[(3,4-difluoro)benzylamino]-6-nitro-7-(piperazin-1-yl)quinazoline] |
| 2500 nM | O=[N+]([O-])c1cc2c(NCc3ccc4c(c3)OCCO4)ncnc2cc1N1CCNCC1 [Example 130, 4-[(3,4-ethylenedioxy)benzylamino]-6-nitro-7-(piperazin-1-yl)quinazoline] |

| SMILES | IC50 |
| --- | --- |
| Fc1ccc(CNc2ncnc3cc(N4CCNCC4)c(F)cc23)cc1 [Example 113, 6-fluoro-4-(4-fluorobenzylamino)-7-(piperazin-1-yl)quinazoline] | 900 nM |
| Fc1cc2c(Nc3ccc4c(c3)OCO4)ncnc2cc1N1CCNCC1 [Example 116, 6-fluoro-4-[(3,4-methylenedioxy)anilino]-7-(piperazin-1-yl)quinazoline] | 3000 nM |
| Fc1ccc(CCNc2ncnc3cc(N4CCNCC4)c(F)cc23)cc1 [Example 117, 6-fluoro-4-[2-[(4-fluoro)phenyl]ethylamino]-7-(piperazin-1-yl)quinazoline] | 4700 nM |

Tested on: IL-5 production
Experiment: IL-5 production inhibiting test in OVA-stimulated spleen cells of immunised mouse (ELISA)
Format: cell-based
Conditions: 72 h, spleen cells of OVA-immunised BALB/c-mouse, OVA 0.5 mg/ml, 3 days
Protocol: (§1) Example 146: IL-4 and IL-5 production inhibiting test
(§2) A 6-weeks-old BALB/c-mouse (Nippon Charles River) was bred preparatively for 1 week and given at the day 0 and day 14 intraperitoneal injection of 100 µl PBS to give immunity which PBS contained 0.1 mg/ml of Ovalbumin(OVA) and 40 mg/ml of aluminum hydroxide. At the day 21 the spleen was taken out from the mouse. The spleen was dissected with a pincette in cooled PBS, passed through a mesh and subjected to centrifugation at 4 °C at 1,500 rpm for 5 minutes. The cells was added with 5 ml of 0.2% NaCI to destroy erythrocytes, and then was made isotonic by adding 5 ml of 1.6% of NaCl. After centrifugation at 4 °C, 1,500 rpm for 5 minutes, the cells were washed twice with 10 ml ofRPMI1640 culture medium. The obtained spleen cells were suspended in cRPMI1640 medium, and the number of the cells was measured by Tuerk dying. After being adjusted to 1 × 10^7 cells/ml, the cells were planted in 100 µl/well on a 96-well plate (FALCON). The cells were cultured at 37 °C under 5% CO2 atmosphere for about 4 hours. OVA was prepared to 10 mg/ml with cRPMI1640 culture medium and subjected to sterile filtration. The 10 mg/ml OVA was diluted with cRPMI1640 culture medium to give 1 mg/ml OVA. A compound to be tested which was dissolved in DMSO in at 1,000-fold concentration was diluted up to 500-fold with cRPMI1640 culture medium containing 1 mg/ml OVA and added in 100 µl/well to the cells which had been planted on the previously mentioned 96-well plate (final concentration of OVA: 0.5 mg/ml). As the controls, the solutions were made by diluting DMSO of the same volume as with the test compounds with cRPMI1640 culture medium containing 1 mg/ml OVA, and they were added to the cells. These cells were cultured at 37 °C under 5%CO2 atmosphere for 3 days. IL-4 and IL-5 in the culture supernatants after 3 days were quantitatively determined by ELISA method. IL-4 and IL-5 were quantitatively determined using IL-4 Development Kit (Genzyme Techne) and mouse IL-5 MiniKit (ENDOGEN), respectively. The production inhibiting rates of each tested compound against IL-4 are shown in Table 22, those against IL-5 in Table 23.

| IC50 | SMILES |
| --- | --- |
| 200 nM | O=[N+]([O-])c1cc2c(NCc3ccc4c(c3)OCO4)ncnc2cc1N1CCNCC1 [Example 31, 4-[3,4-(methylenedioxy)benzylamino]-6-nitro-7-(piperazin-1-yl)quinazoline] |
| 900 nM | O=[N+]([O-])c1cc2c(NCc3cccs3)ncnc2cc1N1CCNCC1 [Example 48, 6-nitro-7-(piperazin-1-yl)-4-[(2-thienyl)methylamino]quinazoline] |
| 2000 nM | O=[N+]([O-])c1cc2c(NCc3ccccc3F)ncnc2cc1N1CCNCC1 [Example 61, 4-(2-fluorobenzylamino)-6-nitro-7-(piperazin-1-yl)quinazoline] |

Tested on: IL-4 production
Experiment: IL-4 production inhibiting test in OVA-stimulated spleen cells of immunised mouse (ELISA)
Format: cell-based
Conditions: 72 h, spleen cells of OVA-immunised BALB/c-mouse, OVA 0.5 mg/ml, 3 days
Protocol: as §1, §2

| IC50 | SMILES |
| --- | --- |
| 10 nM | O=[N+]([O-])c1cc2c(NCc3ccc4c(c3)OCO4)ncnc2cc1N1CCNCC1 [Example 31, 4-[3,4-(methylenedioxy)benzylamino]-6-nitro-7-(piperazin-1-yl)quinazoline] |
| 100 nM | O=[N+]([O-])c1cc2c(NCc3cccs3)ncnc2cc1N1CCNCC1 [Example 48, 6-nitro-7-(piperazin-1-yl)-4-[(2-thienyl)methylamino]quinazoline] |
| 100 nM | O=[N+]([O-])c1cc2c(NCc3ccco3)ncnc2cc1N1CCNCC1 [Example 51, 4-[(2-furyl)methylamino]-6-nitro-7-(piperazin-1-yl)quinazoline] |
| 200 nM | O=[N+]([O-])c1cc2c(NCc3ccccc3F)ncnc2cc1N1CCNCC1 [Example 61, 4-(2-fluorobenzylamino)-6-nitro-7-(piperazin-1-yl)quinazoline] |
